Measured values reported in patent publication US20260285850A1, “SUBSTITUTED OXAZOLIDINONES AND IMIDAZOLINONES AS HERBICIDES” (FMC CORPORATION, priority 2023, published 2026).

What was measured:
Format in all cases: in vivo
[1] = test system: barnyardgrass (Echinochloa crusgalli); assay: Test B flooded paddy test, visual plant response rating 0-100; settings: 250 g ai/ha, Flood, applied to paddy water, evaluated after 13 days
Method in brief: (§1)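 In this flooded assay, 2-leaf seedlings received compound through the water layer, kept at 3 cm over the soil. Plants were held 13 days in a greenhouse and then visually compared with control pots.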

[2] = test system: ducksalad (Heteranthera limosa); assay: as above; settings: 250 g ai/ha, Flood, applied to paddy water, evaluated after 13 days
Method in brief: as §1

[3] = test system: sedge, umbrella (small-flower umbrella sedge, Cyperus difformis); assay: as above; settings: 250 g ai/ha, Flood, applied to paddy water, evaluated after 13 days
Method in brief: as §1

rice (Oryza sativa) = assay: as above; settings: 250 g ai/ha, Flood, applied to paddy water, evaluated after 13 days
Method in brief: as §1

kochia (Bassia scoparia) [4] = assay: Test A postemergence application, visual injury rating 0-100; settings: Postemergence
Method in brief: (§2)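 Grow plants in loam soil blended with sand. Apply formulated compound (non-phytotoxic solvent, surfactant) as a directed soil spray before emergence, or to plants at the one- to two-leaf stage after emergence. Hold in greenhouse 10 days, then rate injury visually versus untreated controls on a 0-100 scale.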

[5] = test system: palmer (palmer amaranth, palmer pigweed, Amaranthus palmeri); assay: as above; settings: Postemergence
Method in brief: as §2

[6] = test system: galium (catchweed bedstraw, Galium aparine); assay: as above; settings: Postemergence
Method in brief: as §2

soybean (Glycine max) [7] = assay: as above; settings: Postemergence
Method in brief: as §2

[8] = test system: blackgrass (Alopecurus myosuroides); assay: as above; settings: Postemergence
Method in brief: as §2

[9] = test system: ryegrass, Italian (italian ryegrass, Lolium multiflorum); assay: as above; settings: Postemergence
Method in brief: as §2

[10] = test system: horseweed (Erigeron canadensis); assay: as above; settings: Postemergence
Method in brief: as §2

corn (Zea mays) [11] = assay: as above; settings: Postemergence
Method in brief: as §2

[12] = test system: wheat (Triticum aestivum); assay: as above; settings: Postemergence
Method in brief: as §2

[13] = test system: ragweed (common ragweed, Ambrosia artemisiifolia); assay: as above; settings: Postemergence
Method in brief: as §2

[14] = test system: oat, wild (wild oat, Avena fatua); assay: as above; settings: Postemergence
Method in brief: as §2

[15] = test system: barnyardgrass (Echinochloa crus-galli); assay: as above; settings: Postemergence
Method in brief: as §2

kochia (Bassia scoparia) [16] = assay: Test A preemergence soil spray, visual injury rating 0-100; settings: 10 days, 0 = no effect, 100 = complete control; for Kochia plant response rating (0-100): 31 g ai/ha; for Kochia plant response rating (0 to 100 scale): 125 g ai/ha
Method in brief: as §2

[17] = test system: palmer (palmer amaranth, palmer pigweed, Amaranthus palmeri); assay: as above; settings: 10 days, 0 = no effect, 100 = complete control; for Amaranth, Palmer plant response rating (0-100): 31 g ai/ha; for Amaranth, Palmer plant response rating (0 to 100 scale): 125 g ai/ha
Method in brief: as §2

soybean (Glycine max) [18] = assay: as above; settings: 10 days, 0 = no effect, 100 = complete control; for Soybean plant response rating (0-100): 31 g ai/ha; for Soybean plant response rating (0 to 100 scale): 125 g ai/ha
Method in brief: as §2

[19] = test system: blackgrass (Alopecurus myosuroides); assay: as above; settings: 10 days, 0 = no effect, 100 = complete control; for Blackgrass plant response rating (0-100): 31 g ai/ha; for Blackgrass plant response rating (0 to 100 scale): 125 g ai/ha
Method in brief: as §2

[20] = test system: ryegrass, Italian (italian ryegrass, Lolium multiflorum); assay: as above; settings: 10 days, 0 = no effect, 100 = complete control; for Ryegrass, Italian plant response rating (0-100): 31 g ai/ha; for Ryegrass, Italian plant response rating (0 to 100 scale): 125 g ai/ha
Method in brief: as §2

corn (Zea mays) [21] = assay: as above; settings: 10 days, 0 = no effect, 100 = complete control; for Corn plant response rating (0-100): 31 g ai/ha; for Corn plant response rating (0 to 100 scale): 125 g ai/ha
Method in brief: as §2

[22] = test system: wheat (Triticum aestivum); assay: as above; settings: 10 days, 0 = no effect, 100 = complete control; for Wheat plant response rating (0-100): 31 g ai/ha; for Wheat plant response rating (0 to 100 scale): 125 g ai/ha
Method in brief: as §2

[23] = test system: ragweed (common ragweed, Ambrosia artemisiifolia); assay: as above; settings: 10 days, 0 = no effect, 100 = complete control; for Ragweed plant response rating (0-100): 31 g ai/ha; for Ragweed plant response rating (0 to 100 scale): 125 g ai/ha
Method in brief: as §2

[24] = test system: oat, wild (wild oat, Avena fatua); assay: as above; settings: 10 days, 0 = no effect, 100 = complete control; for Oat, Wild plant response rating (0-100): 31 g ai/ha; for Oat, Wild plant response rating (0 to 100 scale): 125 g ai/ha
Method in brief: as §2

[25] = test system: barnyardgrass (Echinochloa crus-galli); assay: as above; settings: 10 days, 0 = no effect, 100 = complete control; for Barnyardgrass plant response rating (0-100): 31 g ai/ha; for Barnyardgrass plant response rating (0 to 100 scale): 125 g ai/ha
Method in brief: as §2

[26] = 31 g ai/ha, greenhouse 10 days, 0 no effect, 100 complete control
[27] = 125 g ai/ha, 10 days, 0 is no effect, 100 is complete control

Compound: CSCCOC(=O)C1C=CC(NC(=O)C2(C)CN(c3cc(Cl)cc(Cl)c3)C(=O)O2)C1 (stereo not drawn) [Compound 69]
- Plant response rating, Barnyardgrass (0 to 100 scale, 0 is no effect and 100 is complete control) [1]: 85
- Plant response rating, Ducksalad (0 to 100 scale, 0 is no effect and 100 is complete control) [2]: 60
- Plant response rating, Sedge, Umbrella (0 to 100 scale, 0 is no effect and 100 is complete control) [3]: 95
- Plant response rating, Rice (0 to 100 scale, 0 is no effect and 100 is complete control) (rice (Oryza sativa)): 50
- Kochia plant response rating (0 to 100 scale) (kochia (Bassia scoparia) [4]; [26]): 80
- Kochia plant response rating (0 to 100 scale) (kochia (Bassia scoparia) [4]; [27]): 80
- Amaranth, Palmer / Pigweed, Palmer plant response rating (0 to 100 scale) [5, 26]: 90
- Amaranth, Palmer / Pigweed, Palmer plant response rating (0 to 100 scale) [5, 27]: 90
- Galium plant response rating (0 to 100 scale) [6, 26]: 80
- Galium plant response rating (0 to 100 scale) [6, 27]: 80
- Soybean plant response rating (0 to 100 scale) (soybean (Glycine max) [7]; [26]): 60
- Soybean plant response rating (0 to 100 scale) (soybean (Glycine max) [7]; [27]): 90
- Blackgrass plant response rating (0 to 100 scale) [8, 26]: 90
- Blackgrass plant response rating (0 to 100 scale) [8, 27]: 90
- Ryegrass, Italian plant response rating (0 to 100 scale) [9, 26]: 70
- Ryegrass, Italian plant response rating (0 to 100 scale) [9, 27]: 70
- Horseweed plant response rating (0 to 100 scale) [10, 26]: 70
- Horseweed plant response rating (0 to 100 scale) [10, 27]: 80
- Corn plant response rating (0 to 100 scale) (corn (Zea mays) [11]; [26]): 100
- Corn plant response rating (0 to 100 scale) (corn (Zea mays) [11]; [27]): 100
- Wheat plant response rating (0 to 100 scale) [12, 26]: 90
- Wheat plant response rating (0 to 100 scale) [12, 27]: 90
- Ragweed plant response rating (0 to 100 scale) [13, 26]: 50
- Ragweed plant response rating (0 to 100 scale) [13, 27]: 70
- Oat, Wild plant response rating (0 to 100 scale) [14, 26]: 90
- Oat, Wild plant response rating (0 to 100 scale) [14, 27]: 90
- Barnyardgrass plant response rating (0 to 100 scale) [15, 26]: 90
- Barnyardgrass plant response rating (0 to 100 scale) [15, 27]: 90
- Kochia plant response rating (0-100) (kochia (Bassia scoparia) [16]): 40
- Kochia plant response rating (0 to 100 scale) (kochia (Bassia scoparia) [16]): 90
- Amaranth, Palmer plant response rating (0-100) [17]: 90
- Amaranth, Palmer plant response rating (0 to 100 scale) [17]: 90
- Soybean plant response rating (0-100) (soybean (Glycine max) [18]): 20
- Soybean plant response rating (0 to 100 scale) (soybean (Glycine max) [18]): 50
- Blackgrass plant response rating (0-100) [19]: 40
- Blackgrass plant response rating (0 to 100 scale) [19]: 60
- Ryegrass, Italian plant response rating (0-100) [20]: 30
- Ryegrass, Italian plant response rating (0 to 100 scale) [20]: 80
- Corn plant response rating (0-100) (corn (Zea mays) [21]): 0
- Corn plant response rating (0 to 100 scale) (corn (Zea mays) [21]): 60
- Wheat plant response rating (0-100) [22]: 30
- Wheat plant response rating (0 to 100 scale) [22]: 70
- Ragweed plant response rating (0-100) [23]: 0
- Ragweed plant response rating (0 to 100 scale) [23]: 20
- Oat, Wild plant response rating (0-100) [24]: 0
- Oat, Wild plant response rating (0 to 100 scale) [24]: 60
- Barnyardgrass plant response rating (0-100) [25]: 60
- Barnyardgrass plant response rating (0 to 100 scale) [25]: 90

Compound: CC(C)OC(=O)C1=CCC(NC(=O)C2(C)CN(c3cc(Cl)cc(Cl)c3)C(=O)O2)C1 (stereo not drawn) [Compound 70]
- Plant response rating, Barnyardgrass (0 to 100 scale, 0 is no effect and 100 is complete control) [1]: 50
- Plant response rating, Ducksalad (0 to 100 scale, 0 is no effect and 100 is complete control) [2]: 65
- Plant response rating, Sedge, Umbrella (0 to 100 scale, 0 is no effect and 100 is complete control) [3]: 98
- Plant response rating, Rice (0 to 100 scale, 0 is no effect and 100 is complete control) (rice (Oryza sativa)): 60
- Kochia plant response rating (0 to 100 scale) (kochia (Bassia scoparia) [4]; [26]): 80
- Kochia plant response rating (0 to 100 scale) (kochia (Bassia scoparia) [4]; [27]): 80
- Amaranth, Palmer / Pigweed, Palmer plant response rating (0 to 100 scale) [5, 26]: 90
- Amaranth, Palmer / Pigweed, Palmer plant response rating (0 to 100 scale) [5, 27]: 90
- Galium plant response rating (0 to 100 scale) [6, 26]: 80
- Galium plant response rating (0 to 100 scale) [6, 27]: 80
- Soybean plant response rating (0 to 100 scale) (soybean (Glycine max) [7]; [26]): 80
- Soybean plant response rating (0 to 100 scale) (soybean (Glycine max) [7]; [27]): 90
- Blackgrass plant response rating (0 to 100 scale) [8, 26]: 50
- Blackgrass plant response rating (0 to 100 scale) [8, 27]: 80
- Ryegrass, Italian plant response rating (0 to 100 scale) [9, 26]: 70
- Ryegrass, Italian plant response rating (0 to 100 scale) [9, 27]: 70
- Horseweed plant response rating (0 to 100 scale) [10, 26]: 0
- Horseweed plant response rating (0 to 100 scale) [10, 27]: 0
- Corn plant response rating (0 to 100 scale) (corn (Zea mays) [11]; [26]): 90
- Corn plant response rating (0 to 100 scale) (corn (Zea mays) [11]; [27]): 100
- Wheat plant response rating (0 to 100 scale) [12, 26]: 80
- Wheat plant response rating (0 to 100 scale) [12, 27]: 90
- Ragweed plant response rating (0 to 100 scale) [13, 26]: 0
- Ragweed plant response rating (0 to 100 scale) [13, 27]: 50
- Oat, Wild plant response rating (0 to 100 scale) [14, 26]: 30
- Oat, Wild plant response rating (0 to 100 scale) [14, 27]: 80
- Barnyardgrass plant response rating (0 to 100 scale) [15, 26]: 90
- Barnyardgrass plant response rating (0 to 100 scale) [15, 27]: 90
- Kochia plant response rating (0-100) (kochia (Bassia scoparia) [16]): 0
- Kochia plant response rating (0 to 100 scale) (kochia (Bassia scoparia) [16]): 40
- Amaranth, Palmer plant response rating (0-100) [17]: 30
- Amaranth, Palmer plant response rating (0 to 100 scale) [17]: 90
- Soybean plant response rating (0-100) (soybean (Glycine max) [18]): 0
- Soybean plant response rating (0 to 100 scale) (soybean (Glycine max) [18]): 30
- Blackgrass plant response rating (0-100) [19]: 10
- Blackgrass plant response rating (0 to 100 scale) [19]: 30
- Ryegrass, Italian plant response rating (0-100) [20]: 0
- Ryegrass, Italian plant response rating (0 to 100 scale) [20]: 70
- Corn plant response rating (0-100) (corn (Zea mays) [21]): 0
- Corn plant response rating (0 to 100 scale) (corn (Zea mays) [21]): 20
- Wheat plant response rating (0-100) [22]: 0
- Wheat plant response rating (0 to 100 scale) [22]: 70
- Ragweed plant response rating (0-100) [23]: 10
- Ragweed plant response rating (0 to 100 scale) [23]: 10
- Oat, Wild plant response rating (0-100) [24]: 0
- Oat, Wild plant response rating (0 to 100 scale) [24]: 20
- Barnyardgrass plant response rating (0-100) [25]: 30
- Barnyardgrass plant response rating (0 to 100 scale) [25]: 90
